Among the data in patent US7125877B2, “Benzimidazole derivatives” (Banyu Pharmaceutical Co., Ltd., priority 2002, dated 2006) are IC50 values, retold here.

As a reminder, the IC50 is the concentration needed to halve the response being measured.

Each structure is given as a SMILES string. Where a name gives a salt, the structure may show the parent alone.

Test [1] deals with T1, nociceptin receptor ORL1 (Homo sapiens, UniProt P41146).
T1 construct: expressed in transfected cells
In words: Nociceptin receptor binding inhibition assay ([125I]Tyr14-Nociceptin, SPA, CHO/ORL1 membranes). The following applies: 50 pM [125I]Tyr14-Nociceptin, CHO/ORL1 membrane, 37° C. for 60 minutes; read-out: IC50 value, nociceptin receptor binding inhibition action. The method, then: Pharmacological Test Example 1 (Nociceptin Receptor Binding Inhibition Assay)
cDNA which codes a human nociceptin receptor gene was cloned into an expression vector pCR3 (Invitrogen) to prepare pCR3/ORL1. Next, pCR3/ORL1 was transfected in CHO cells using a transfectam (Nippongene) to obtain a stable expression strain (CHO/ORL1 cells) having resistance against 1 mg/ml G418. Membrane fractions were prepared from this stable expression strain to carry out a receptor binding assay.
The membrane of 11 μg, 50 pM [^125I] Tyr^14-Nociceptin (Amersham Pharmacia), 1 mg Wheatgerm agglutinin SPA beads (PVT based; Amersham Pharmacia) and each test compound were suspended in an NC buffer (50 mM Hepes, 10 mM sodium chloride, 1 mM magnesium chloride, 2.5 mM calcium chloride, 0.1% BSA, 0.025% bacitracin, pH 7.4) and incubated at 37° C. for 60 minutes, and then the radioactivity was determined. The binding activity to the nociceptin receptor was indicated by the 50% inhibition concentration (IC50 value) of [^125I]Tyr^14-Nociceptin binding by each compound of the present invention.

The target in test [2] is T1, nociceptin receptor ORL1. In words: Antagonism against nociceptin-elicited G protein activation (GTPγ[35S] binding, CHO/ORL1 membranes). Format: biochemical. Particulars: 50 nM nociceptin, 200 pM GTPγ[35S], CHO/ORL1 membrane, 25° C. for 150 minutes. The procedure: Pharmacological Test Example 2 (Antagonism Against Nociceptin-elicited G Protein Activation)
CHO cells which stably represented a nociceptin receptor ORL1 were used to investigate the action of each tested compound against nociceptin-elicited G protein activation. A membrane prepared from the CHO/ORL1 cells, 50 nM nociceptin, 200 pM GTPγ[^35S] (NEN), 1.5 mg Wheatgerm agglutinin SPA beads (Amersham Pharmacia) and each of the tested compounds were mixed in a GDP buffer (20 mM Hepes, 100 mM sodium chloride, 10 mM magnesium chloride, 1 mM EDTA, 5 μM GDP, pH 7.4) and incubated at 25° C. for 150 minutes, and then the radioactivity was determined. The antagonism against nociceptin-elicited G protein activation was shown by the 50% inhibition concentration (IC50 value) of each tested compound against GTPγ[^35S] binding.
(Binding of GTPγS marks nucleotide exchange on a G protein.)

T1 sequence (P41146 whole entry): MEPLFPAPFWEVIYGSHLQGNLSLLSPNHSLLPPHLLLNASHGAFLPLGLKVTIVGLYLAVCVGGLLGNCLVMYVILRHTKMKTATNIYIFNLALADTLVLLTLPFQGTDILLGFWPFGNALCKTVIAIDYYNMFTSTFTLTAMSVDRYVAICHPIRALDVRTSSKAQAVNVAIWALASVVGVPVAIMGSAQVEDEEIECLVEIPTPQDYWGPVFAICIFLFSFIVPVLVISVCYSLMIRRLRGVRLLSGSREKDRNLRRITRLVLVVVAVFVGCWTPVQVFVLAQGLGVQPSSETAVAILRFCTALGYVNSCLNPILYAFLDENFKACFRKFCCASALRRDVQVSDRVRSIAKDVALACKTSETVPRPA

With `COC[C@]1(C(=O)c2nc3cc(C)c(N4CCN5CCC[C@H]5C4)cc3[nH]2)CC[C@](C)(O)CC1` [Example 53, 6-[(S)-1,4-ziazabicyclo[4.3.0]nonan-4-yl]-2-[(1,4-trans)-4-hydroxy-1-methoxymethyl-4-methylcyclohexylcarbonyl]-5-methylbenzimidazole], the IC50 at nociceptin receptor ORL1 [1] came out at 550 pM; on nociceptin receptor ORL1 [2], 1000 pM. For the compound `CCN1CCN(c2cc3[nH]c(C(=O)[C@]4(C)CC[C@@](C)(O)CC4)nc3cc2Cl)CC1` [Example 51, 5-chloro-2-[(1,4-trans)-1,4-dimethyl-4-hydroxycyclohexylcarbonyl]-6-(4-ethylpiperazin-1-yl) benzimidazole], the IC50 at nociceptin receptor ORL1 [1] was found to be 1400 pM; on nociceptin receptor ORL1 [2], 650 pM. On the same counts, the results for `COC(=O)N[C@H]1CC[C@](C)(C(=O)c2nc3cc(Cl)c(N4CCN(CCO)CC4C)cc3[nH]2)CC1` (single isomer, unassigned) [Example 6(2S*), 5-chloro-6-[4-(2-hydroxyethyl)-(2S*)-2-methylpiperazin-1-yl]-2-[(1,4-trans)-4-methoxycarbonylamino-1-methylcyclohexylcarbonyl]benzimidazole-fumaric acid salt] are 410 pM and 920 pM. With `CCN1CCN(c2cc3[nH]c(C(=O)N(C)C4CCCCC4)nc3cc2Cl)C(C)C1` (stereo not drawn) [Example 39(2S*)], the IC50 at nociceptin receptor ORL1 [1] amounted to 29000 pM. Turning to `CCN1CCN(c2cc3[nH]c(C(=O)[C@]4(C)CC[C@@H](O)CC4)nc3cc2Cl)C(C)C1` (single isomer, unassigned) [Example 24(2S*), 5-chloro-6-[4-ethyl-(2S*)-2-methylpiperazin-yl]-2-[(1,4-trans)-4-hydroxy-1-methylcyclohexylcarbonyl]benzimidazole], the IC50 on nociceptin receptor ORL1 [1] was 2100 pM; at nociceptin receptor ORL1 [2], 2800 pM. The like results for `CCN1CCN(c2cc3[nH]c(C(=O)[C@]4(CC)CC[C@@H](NC(=O)OC)CC4)nc3cc2C)C(C)C1` (single isomer, unassigned) [Example 47(2S*), 2-[(1,4-trans)-1-ethyl-4-(methoxycarbonylamino)-cyclohexylcarbonyl]-6-[4-ethyl-(2S*)-2-methylpiperazin-1-yl]-5-methylbenzimidazole-fumaric acid salt] were, in that order, 220 pM and 360 pM.

For the compound `CCN1CCN(c2cc3[nH]c(C(=O)[C@]4(CC)CC[C@@H](NC(=O)OC)CC4)nc3cc2Cl)C(C)C1` (single isomer, unassigned) [Example 15(2S*), 5-chloro-2-[(1,4-trans)-1-ethyl-4-(methoxycarbonylamino)-cyclohexylcarbonyl]-6-[4-ethyl-(2S*)-2-methylpiperazin-1-yl]benzimidazole-fumaric acid salt], the IC50 on nociceptin receptor ORL1 [1] worked out at 190 pM; on nociceptin receptor ORL1 [2] it was 420 pM. On the same counts, the results for `COC(=O)N[C@H]1CC[C@](C)(C(=O)c2nc3cc(C)c(N4CCN(CCO)CC4C)cc3[nH]2)CC1` (single isomer, unassigned) [Example 11(2S*), 6-[4-(2-hydroxyethyl)-(2S*)-2-methylpiperazin-1-yl]-2-[(1,4-trans)-4-methoxycarbonylamino-1-methylcyclohexylcarbonyl]-5-methylbenzimidazole-fumaric acid salt] are 990 pM and 630 pM.

Turning to `CCN1CCN(c2cc3[nH]c(C(=O)[C@]4(C)CC[C@@H](NC(=O)OC)CC4)nc3cc2C)C(C)C1` (single isomer, unassigned) [Example 2(2S*), 6-[4-ethyl-(2S*)-2-methylpiperazin-1-yl]-2-[(1,4-trans)-4-methoxycarbonylamino-1-methylcyclohexylcarbonyl]-5-methylbenzimidazole], the IC50 on nociceptin receptor ORL1 [1] worked out at 200 pM; on nociceptin receptor ORL1 [2] it was 630 pM.

`CCN1CCN(c2cc3[nH]c(C(=O)C4(C)CCN(C(C)=O)CC4)nc3cc2C)C(C)C1` (single isomer, unassigned) [Example 27(2S*), 2-(1-acetyl-4-methylpiperidinyl-4-carbonyl)-6-[4-ethyl-(2S*)-2-methylpiperazin-1-yl]-5-methylbenzimidazole]: the concentration for half-maximal inhibition (IC50) on nociceptin receptor ORL1 [1] worked out at 1900 pM; at nociceptin receptor ORL1 [2], 1500 pM. Take `CCN1CCN(c2cc3[nH]c(C(=O)[C@]4(C)CC[C@@H](NC(=O)OC)CC4)nc3cc2Cl)C(C)C1` (single isomer, unassigned) [Example 1(2S*), 5-chloro-6-[4-ethyl-(2S*)-2-methylpiperazin-1-yl]-2-[(1,4-trans)-4-methoxycarbonylamino-1-methylcyclohexylcarbonyl]benzimidazole]: the IC50 was found to be 510 pM at nociceptin receptor ORL1 [1] and 820 pM at nociceptin receptor ORL1 [2].
